In US5475022A, “Phenyl or heteroaryl and tetrahydronaphthyl substituted diene compounds having retinoid like biological activity” (Allergan, Inc., priority 1993, dated 1995):

Tested on: ornithine decarboxylase (ODC)
Test: inhibition of TPA induction of ornithine decarboxylase (ODC)
Format: cell-based
Conditions: TPA-induced ODC activity, read-out: % ODC Inhibition at 1.0 μM concentration
Source text: The retinoid-like activity of these compounds is confirmed through the classic measure of retinoic acid activity involving the effects of retinoic acid on ornithine decarboxylase. The original work on the correlation between retinoic acid and decrease in cell proliferation was done by Verma & Boutwell, Cancer Research, 1977, 37,2196-2201. That reference discloses that ornithine decarboxylase (ODC) activity increased precedent to polyamine biosynthesis. It has been established elsewhere that increases in polyamine synthesis can be correlated or associated with cellular proliferation. Thus, if ODC activity could be inhibited, cell hyperproliferation could be modulated. Although all causes for ODC activity increases are unknown, it is known that 12-0-tetradecanoylphorbol-13-acetate (TPA) induces ODC activity.

Row | Structure (SMILES) | inhibition at 1 µM
1 | COC(=O)c1ccoc1/C=C/C=C(/C)c1ccc2c(c1)C(C)(C)CCC2(C)C [Compound 12, Methyl 2-[4-methyl-4-(5,5,8,8, -tetramethyl-5,6,7,8, -tetrahydronaphthalen)2-yl-1E, 3Z-butadien-1-yl] furan 3-carboxylate] | 42%
2 | COC(=O)c1ccoc1/C=C/C=C(/C)c1cc2c(cc1C)C(C)(C)CCC2(C)C [Compound 2, Methyl 2-[4-methyl-4-(3,5,5,8,8-pentamethyl-5,6,7,8-tetrahydronaphthalene)-2-yl-1E,3Z-butadien-1-yl]-furan-3-carboxylate] | 36%
3 | C/C(=C/C=C/c1occc1C(=O)O)c1ccc2c(c1)C(C)(C)CCC2(C)C [Compound 14, 2-[4-Methyl-4-(5,5,8,8,-tetramethyl-5,6,7,8-tetrahydronaphthalen)-2-yl-1E,3Z-butadien-1-yl] furan 3-carboxylic acid] | 72%
4 | CCOC(=O)c1occc1/C=C\C=C(/C)c1cc2c(cc1C)C(C)(C)CCC2(C)C [Compound 19, Ethyl 3-[4-methyl-4-(3,5,5,8,8-pentamethyl-5,6,7,8-tetrahydronaphthalene)-2-yl-1Z, 3E-butadiene-1-yl]-2-furanoate] | 73%
5 | COC(=O)c1ccoc1/C=C/C=C(\C)c1cc2c(cc1C)C(C)(C)CCC2(C)C [Compound 1, Methyl 2-[4-methyl-4-(3,5,5,8,8-pentamethyl-5,6,7,8-tetrahydronaphthalene)-2-yl-1E,3E-butadien-1-yl]-furan-3-carboxylate] | 37%
6 | C/C(=C/C=C/c1occc1C(=O)O)c1cc2c(cc1C)C(C)(C)CCC2(C)C [Compound 9, 2-[4-Methyl-4-(3,5,5,8,8-pentamethyl-5,6,7,8-tetrahydronaphthalene)-2-yl-1E,3Z-butadien-1-yl]-furan-3-carboxylic acid] | 56%
7 | C/C(=C/C=C/c1ccccc1C(=O)O)c1cc2c(cc1C)C(C)(C)CCC2(C)C [Compound 8, 2-[4-Methyl4-(3,5,5,8,8-pentamethyl-5,6,7,8-tetrahydronaphthalene)-2-yl-1E,3Z-butadien-1-yl]benzoic acid] | 75%
8 | COC(=O)c1ccccc1/C=C/C=C(\C)c1cc2c(cc1C)C(C)(C)CCC2(C)C [Compound 24, Methyl 2-[4-methyl-4-(3,5,5,8,8-pentametyl-5,6,7,8-tetrahydronaphthalene)-2-yl-1E,3E-butadien-1-yl]benzoate] | 88%
9 | C/C(=C\C=C\c1ccccc1C(=O)O)c1cc2c(cc1C)C(C)(C)CCC2(C)C [Compound 7, 2-[4-Methyl-4-(3,5,5,8,8-pentamethyl-5,6,7,8-tetrahydronaphthalene)-2-yl-1E,3E-butadien-1-yl]benzoic acid] | 79%
10 | C/C(=C\C=C\c1occc1C(=O)O)c1ccc2c(c1)C(C)(C)CCC2(C)C [Compound 13, 2-[4-Methyl-4-(5,5,8,8,-tetramethyl-5,6,7,8,-tetrahydronaphthalen)-2-yl-1E,3E-butadien-1-yl] furan 3-carboxylic acid] | 60%
11 | C/C(=C\C=C\c1ccsc1C(=O)O)c1cc2c(cc1C)C(C)(C)CCC2(C)C [Compound 17, 3-[4-Methyl-4-(3,5,5,8,8,-pentamethyl-5,6,7,8,-tetrahydronaphthalen)-2-yl-1E,3 E-butadien-1-yl]thiophene 2-carboxylic acid] | 79%
12 | COC(=O)c1ccoc1/C=C/C=C(\C)c1ccc2c(c1)C(C)(C)CCC2(C)C [Compound 11, Methyl 2-[4-methyl-4-(5,5,8,8,-tetramethyl5,6,7,8,-tetrahydronaphthalen)-2-yl-1E,3E-butadien-1-yl] furan 3-carboxylate] | 26%

Same assay, conditions: value determined by linear regression of data collected at 30, 100, 300 nanomolar concentrations, read-out: % ODC Inhibition at 1.0 μM concentration

Row | Structure (SMILES) | inhibition at 1 µM
13 | COC(=O)c1ccccc1/C=C/C=C(\C)c1ccc2c(c1)C(C)(C)CCC2(C)C [Compound 6, Methyl 2-[4-methyl-4-(5,5,8,8-tetramethyl-5,6,7,8-tetrahydronaphthalene)-2-yl-1E,3E-butadien-1-yl]benzoate] | 100%

Tested on: ornithine decarboxylase (ODC)
Test: not given
Conditions: literature statement; cited from earlier work

Row | Structure (SMILES) | inhibition of induction of ODC activity by TPA
14 | CC1=C(/C=C/C(C)=C/C=C/C(C)=C/C(=O)O)C(C)(C)CCC1 [Retinoic acid] | inhibits this induction of ODC activity by TPA
